Measured values published in US9067871B2, “Aminotetraline derivatives, pharmaceutical compositions containing them, and their use in therapy” (ABBVIE DEUTSCHLAND GMBH & CO KG, priority 2009, dated 2015).
Counter-ions that a name gives are not always drawn. Like-named read-outs stand apart in the source and are kept apart here.

Molecular target: human GlyT1c transporter (Homo sapiens (Human), UniProt P48067)
Test: Radioligand binding assay using recombinant CHO cell membranes expressing human GlyT1
Details: human GlyT1c-expressing CHO cell membranes, read-out: radioligand binding Kiapp
Text: 2. Radioligand binding assays using recombinant CHO cell membranes expressing human GlyT1: […]

Chain of human GlyT1c transporter (P48067 whole entry): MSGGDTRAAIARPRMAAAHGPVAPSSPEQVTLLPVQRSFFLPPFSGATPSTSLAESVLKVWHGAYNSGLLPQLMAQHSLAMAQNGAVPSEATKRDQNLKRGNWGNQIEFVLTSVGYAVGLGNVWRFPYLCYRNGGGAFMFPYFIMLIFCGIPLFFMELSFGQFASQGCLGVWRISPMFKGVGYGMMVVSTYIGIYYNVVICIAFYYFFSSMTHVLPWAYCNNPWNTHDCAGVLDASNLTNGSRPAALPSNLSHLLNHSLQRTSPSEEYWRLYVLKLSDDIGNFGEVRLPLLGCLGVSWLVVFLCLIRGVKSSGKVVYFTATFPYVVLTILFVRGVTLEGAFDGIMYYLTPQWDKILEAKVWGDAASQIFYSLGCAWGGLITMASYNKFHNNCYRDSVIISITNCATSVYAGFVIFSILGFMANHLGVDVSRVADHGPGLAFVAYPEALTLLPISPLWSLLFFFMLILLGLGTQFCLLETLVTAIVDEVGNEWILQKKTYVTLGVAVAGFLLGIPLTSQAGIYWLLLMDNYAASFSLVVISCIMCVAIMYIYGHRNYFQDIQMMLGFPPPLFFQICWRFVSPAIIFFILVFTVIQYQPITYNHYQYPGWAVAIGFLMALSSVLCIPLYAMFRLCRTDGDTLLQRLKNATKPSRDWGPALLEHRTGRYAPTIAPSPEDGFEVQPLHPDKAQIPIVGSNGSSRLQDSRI

| SMILES | Ki | also measured |
| --- | --- | --- |
| Cn1cnc(S(=O)(=O)NCCOc2ccc3c(c2)C(Cc2ccccc2)C(N2CCCC2)CC3)c1 (single isomer, unassigned; (+)) [Example 118, (+)-N-(2-(8-benzyl-7-(pyrrolidin-1-yl)-5,6,7,8-tetrahydronaphthalen-2-yloxy)ethyl)-1-methyl-1H-imidazole-4-sulfonamide hydrochloride] |  | Ki (hydrochloride): ≤ 100 nM |
| O=S(=O)(CC1CC1)NCCOc1ccc2c(c1)C(Cc1ccccc1)C(N1CCC1)CC2 (single isomer, unassigned; (+)) [Example 144, (+)-N-(2-(7-(azetidin-1-yl)-8-benzyl-5,6,7,8-tetrahydronaphthalen-2-yloxy)ethyl)-1-cyclopropylmethanesulfonamide succinate] |  | Ki (succinate): ≤ 1000 nM |
| Cn1cnc(S(=O)(=O)NCCOc2ccc3c(c2)C(Cc2ccccc2)C(N2CCCC2)CC3)c1 (single isomer, unassigned; (-)) [Example 117, (−)-N-(2-(8-benzyl-7-(pyrrolidin-1-yl)-5,6,7,8-tetrahydronaphthalen-2-yloxy)ethyl)-1-methyl-1H-imidazole-4-sulfonamide hydrochloride] |  | Ki (hydrochloride): ≤ 10 nM |
| O=S(=O)(CC1CC1)NCCOc1ccc2c(c1)C(Cc1ccccc1)C(N1CCC1)CC2 (single isomer, unassigned; (-)) [Example 143, (−)-N-(2-(7-(azetidin-1-yl)-8-benzyl-5,6,7,8-tetrahydronaphthalen-2-yloxy)ethyl)-1-cyclopropylmethanesulfonamide] | ≤ 10 nM |  |
| CNC1CCc2ccc(CNS(=O)(=O)C3CCC3)cc2C1Cc1ccccc1 (single isomer, unassigned; enantiomer 1) [Example 193, Enantiomer 1 of N-{[8-benzyl-7-(methylamino)-5,6,7,8-tetrahydronaphthalen-2-yl]methyl}cyclobutanesulfonamide hydrochloride] | ≤ 10 nM |  |
| Cn1cnc(S(=O)(=O)NCCOc2ccc3c(c2)C(Cc2ccccc2)C(N)CC3)c1 (single isomer, unassigned; enantiomer 1) [Example 238, Enantiomer 1 of N-(2-{[7-amino-8-benzyl-5,6,7,8-tetrahydronaphthalen-2-yl]oxy}ethyl)-1-methyl-1H-imidazole-4-sulfonamide hydrochloride] | ≤ 10 nM |  |
| CNC1CCc2ccc(OCCNS(=O)(=O)CC3CC3)cc2C1Cc1cccc(F)c1 (single isomer, unassigned; enantiomer 1) [Example 240, Enantiomer 1 of 1-cyclopropyl-N-(2-{[8-(3-fluorobenzyl)-7-(methylamino)-5,6,7,8-tetrahydronaphthalen-2-yl]oxy}ethyl)methanesulfonamide hydrochloride] | ≤ 10 nM |  |
| CNC1CCc2ccc(OCCNS(=O)(=O)c3ccn(C)c3)cc2C1Cc1cc(F)cc(F)c1 (single isomer, unassigned; enantiomer 1) [Example 241, Enantiomer 1 of N-(2-{[8-(3,5-difluorobenzyl)-7-(methylamino)-5,6,7,8-tetrahydronaphthalen-2-yl]oxy}ethyl)-1-methyl-1H-pyrrole-3-sulfonamide hydrochloride] | ≤ 100 nM |  |
| CNC1CCc2ccc(OCCNS(=O)(=O)CC3CC3)cc2C1Cc1cc(F)cc(F)c1 (single isomer, unassigned; enantiomer 1) [Example 245, Enantiomer 1 of 1-cyclopropyl-N-(2-{[8-(3,5-difluorobenzyl)-7-(methylamino)-5,6,7,8-tetrahydronaphthalen-2-yl]oxy}ethyl)methanesulfonamide hydrochloride] | ≤ 1000 nM |  |
| Cn1cnc(S(=O)(=O)NCc2ccc3c(c2)C(Cc2ccccc2)C(N2CCC2)CC3)c1 (single isomer, unassigned; enantiomer 1) [Example 252, Enantiomer 1 of N-{[7-(azetidin-1-yl)-8-benzyl-5,6,7,8-tetrahydronaphthalen-2-yl]methyl}-1-methyl-1H-imidazole-4-sulfonamide] | ≤ 10 nM |  |
| O=S(=O)(NCc1ccc2c(c1)C(Cc1ccccc1)C(N1CCC1)CC2)c1ccccn1 (single isomer, unassigned; enantiomer 1) [Example 253, Enantiomer 1 of N-{[7-(azetidin-1-yl)-8-benzyl-5,6,7,8-tetrahydronaphthalen-2-yl]methyl}pyridine-2-sulfonamide] | ≤ 1000 nM |  |
| Cn1cc(S(=O)(=O)NCc2ccc3c(c2)C(Cc2ccccc2)C(N2CCC2)CC3)cn1 (single isomer, unassigned; enantiomer 1) [Example 254, Enantiomer 1 of N-{[7-(azetidin-1-yl)-8-benzyl-5,6,7,8-tetrahydronaphthalen-2-yl]methyl}-1-methyl-1H-pyrazole-4-sulfonamide] | ≤ 10 nM |  |
| O=S(=O)(NCc1ccc2c(c1)C(Cc1ccccc1)C(N1CCC1)CC2)c1cccs1 (single isomer, unassigned; enantiomer 1) [Example 255, Enantiomer 1 of N-{[7-(azetidin-1-yl)-8-benzyl-5,6,7,8-tetrahydronaphthalen-2-yl]methyl}thiophene-2-sulfonamide] | ≤ 1000 nM |  |
| CNC1CCc2ccc(OCCNS(=O)(=O)CC3CC3)cc2C1Cc1cccc(F)c1 (single isomer, unassigned; enantiomer 2) [Example 239, Enantiomer 2 of C-cyclopropyl-N-{2-[8-(3-fluoro-benzyl)-7-methylamino-5,6,7,8-tetrahydronaphthalen-2-yloxy]-ethyl}-methanesulfonamide hydrochloride] | ≤ 1000 nM |  |
| CNC1CCc2ccc(OCCNS(=O)(=O)c3ccn(C)c3)cc2C1Cc1cc(F)cc(F)c1 (single isomer, unassigned; enantiomer 2) [Example 242, Enantiomer 2 of N-(2-{[8-(3,5-difluorobenzyl)-7-(methylamino)-5,6,7,8-tetrahydronaphthalen-2-yl]oxy}ethyl)-1-methyl-1H-pyrrole-3-sulfonamide hydrochloride] | ≤ 10 nM |  |
| CNC1CCc2ccc(OCCNS(=O)(=O)CC3CC3)cc2C1Cc1cc(F)cc(F)c1 (single isomer, unassigned; enantiomer 2) [Example 244, Enantiomer 2 of 1-cyclopropyl-N-(2-{[8-(3,5-difluorobenzyl)-7-(methylamino)-5,6,7,8-tetrahydronaphthalen-2-yl]oxy}ethylmethanesulfonamide hydrochloride] | ≤ 10 nM |  |
| NC1CCc2ccc(OCCNS(=O)(=O)C3CCCCC3)cc2C1Cc1ccc(Cl)c(Cl)c1 (stereo not drawn) [Example 85, Cyclohexanesulfonic acid {2-[7-amino-8-(3,4-dichloro-benzyl)-5,6,7,8-tetrahydro-naphthalen-2-yloxy]-ethyl}-amide hydrochloride] | ≤ 1000 nM |  |
| C[Si](C)(C)CCS(=O)(=O)NCCOc1ccc2c(c1)C(Cc1ccc(Cl)c(Cl)c1)C(N)CC2 (stereo not drawn) [Example 86, 2-Trimethylsilanyl-ethanesulfonic acid {2-[7-amino-8-(3,4-dichloro-benzyl)-5,6,7,8-tetrahydro-naphthalen-2-yloxy]-ethyl}-amide hydrochloride] | ≤ 10000 nM |  |
| Cc1cc(CS(=O)(=O)NCCOc2ccc3c(c2)C(Cc2ccc(Cl)c(Cl)c2)C(N)CC3)no1 (stereo not drawn) [Example 87, N-{2-[7-Amino-8-(3,4-dichloro-benzyl)-5,6,7,8-tetrahydro-naphthalen-2-yloxy]-ethyl}-C-(5-methyl-isoxazol-3-yl)-methanesulfonamide hydrochloride] | ≤ 10000 nM |  |
| O=S(=O)(NCCOc1ccc2c(c1)C(Cc1ccc(Cl)c(Cl)c1)C(N1CCCC1)CC2)C1CCC1 (stereo not drawn) [Example 88, Cyclobutanesulfonic acid {2-[8-(3,4-dichloro-benzyl)-7-pyrrolidin-1-yl-5,6,7,8-tetrahydronaphthalen-2-yloxy]-ethyl}-amide hydrochloride] | ≤ 100 nM |  |
| CN(CCOc1ccc2c(c1)C(Cc1ccc(Cl)c(Cl)c1)C(N1CCCC1)CC2)S(=O)(=O)c1cnn(C)c1 (stereo not drawn) [Example 89, 1-Methyl-1H-pyrazole-4-sulfonic acid {2-[8-(3,4-dichloro-benzyl)-7-pyrrolidin-1-yl-5,6,7,8-tetrahydro-naphthalen-2-yloxy]-ethyl}-methyl-amide hydrochloride] | ≤ 100 nM |  |
| CCCCS(=O)(=O)NCCOc1ccc2c(c1)C(Cc1ccc(Cl)c(Cl)c1)C(N)CC2 (stereo not drawn) [Example 90, Butane-1-sulfonic acid {2-[7-amino-8-(3,4-dichloro-benzyl)-5,6,7,8-tetrahydro-naphthalen-2-yloxy]-ethyl}-amide hydrochloride] | ≤ 1000 nM |  |
| CC(C)S(=O)(=O)NCCOc1ccc2c(c1)C(Cc1ccc(Cl)c(Cl)c1)C(N)CC2 (stereo not drawn) [Example 91, Propane-2-sulfonic acid {2-[7-amino-8-(3,4-dichloro-benzyl)-5,6,7,8-tetrahydronaphthalen-2-yloxy]-ethyl}-amide hydrochloride] | ≤ 100 nM |  |
| CCOCCS(=O)(=O)NCCOc1ccc2c(c1)C(Cc1ccc(Cl)c(Cl)c1)C(N)CC2 (stereo not drawn) [Example 93, 2-Ethoxy-ethanesulfonic acid {2-[7-amino-8-(3,4-dichloro-benzyl)-5,6,7,8-tetrahydronaphthalen-2-yloxy]-ethyl}-amide hydrochloride] | ≤ 1000 nM |  |
| CN(CCOc1ccc2c(c1)C(Cc1ccc(Cl)c(Cl)c1)C(N1CCCC1)CC2)S(=O)(=O)C1CCC1 (stereo not drawn) [Example 94, Cyclobutanesulfonic acid {2-[8-(3,4-dichloro-benzyl)-7-pyrrolidin-1-yl-5,6,7,8-tetrahydronaphthalen-2-yloxy]-ethyl}-methyl-amide hydrochloride] | ≤ 100 nM |  |
| NC1CCc2ccc(OCCNS(=O)(=O)CC3CC3)cc2C1Cc1ccc(Cl)c(Cl)c1 (stereo not drawn) [Example 95, N-{2-[7-Amino-8-(3,4-dichloro-benzyl)-5,6,7,8-tetrahydro-naphthalen-2-yloxy]-ethyl}-C-cyclopropyl-methanesulfonamide hydrochloride] | ≤ 10 nM |  |
| CN(CCOc1ccc2c(c1)C(Cc1ccccc1)C(N)CC2)S(=O)(=O)c1cn(C)cn1 (stereo not drawn) [Example 98, 1-Methyl-1H-imidazole-4-sulfonic acid [2-(7-amino-8-benzyl-5,6,7,8-tetrahydronaphthalen-2-yloxy)-ethyl]-methyl-amide hydrochloride] | ≤ 1000 nM |  |
